Here are results for 22 compounds from PubChem BioAssay (NCI).

Some test systems named below: T-47D breast; MCF7 breast; MDA-MB-231 breast; MDA-N.
Common to all, as to experiment: inhibition of tumour cell growth, NCI panel, 48 h

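Grown in 96-well plates, cells were treated for 48 hours with each compound at five concentrations. Insufficient inhibition: endpoint recorded as highest concentration tested. GI50 marks 50% less growth. Definition used: TGI = concentration required for complete inhibition of growth.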 Some results are limits rather than exact numbers.

On to `COC(=O)CCC(=O)c1c(C)[nH]c(/C=C2\N=C(c3ccc[nH]3)C=C2OC)c1C`, for which the GI50 with T-47D breast is 0.931 µM; in the assay on MCF7 breast, 0.567 µM; in the assay with MDA-MB-231 breast, 0.385 µM. For the same compound, the figures for the TGI with T-47D breast, in the assay with MCF7 breast and in the assay on MDA-MB-231 breast were 4.09 µM, 2.03 µM and 2.64 µM, respectively.

As to `COc1ccc2c(c1)c(C1(c3cn(C)c4ccc(OC)cc34)C(=O)Nc3ccc(F)cc31)cn2C`, the GI50 in the assay with T-47D breast is 4.75 µM; in the assay on MCF7 breast, 3.61 µM; in the assay with MDA-MB-231 breast, 2.89 µM. In addition, the figures for the TGI with T-47D breast, in the assay on MCF7 breast and in the assay with MDA-MB-231 breast were greater than 100 µM, greater than 100 µM and 18.6 µM, respectively.

In the case of `CCCN(CCC)c1ccc(CO)c(C)c1`, the GI50 is 13.9 µM in the assay on T-47D breast, greater than 100 µM in the assay on MCF7 breast and 77.4 µM in the assay with MDA-MB-231 breast. Besides, the TGI in the assay on T-47D breast is 33.5 µM; with MCF7 breast, greater than 100 µM; in the assay with MDA-MB-231 breast, greater than 100 µM.

For `CCC[C@H](N[C@@H]1CCc2cc(F)cc(F)c2C1)C(=O)Nc1cn(C(C)(C)CNCC(C)(C)C)cn1`, the GI50 is 16 µM in the assay with T-47D breast, 15.6 µM in the assay with MCF7 breast and 10.2 µM in the assay on MDA-MB-231 breast. The TGI in the assay on T-47D breast is greater than 65.4 µM; in the assay with MCF7 breast, greater than 56.7 µM; in the assay with MDA-MB-231 breast it was 29.3 µM.

With `CN1CCN(c2ccc3nc(-c4cc(C(C)(C)C)c(O)c(C(C)(C)C)c4)[nH]c3c2)CC1`, the GI50 in the assay on T-47D breast was 2.86 µM; with MCF7 breast, 1.8 µM; with MDA-MB-231 breast, 2.09 µM. Moreover, the TGI was 7.61 µM in the assay on T-47D breast, 4.14 µM in the assay with MCF7 breast and 4.31 µM in the assay on MDA-MB-231 breast.

`COc1ccc2c(c1)CC[C@@H]1[C@@H]2CC[C@@]2(C)[C@H]1CC1(CCCCC1)[C@@H]2O`: the GI50 is 15.7 µM in the assay with T-47D breast, 18.4 µM with MCF7 breast and 12.9 µM in the assay with MDA-MB-231 breast. The TGI with T-47D breast stood at 39.7 µM; in the assay with MCF7 breast, 37.5 µM; in the assay on MDA-MB-231 breast, 32.8 µM.

For the compound `CCC(Sc1nnc2c3ccccc3n(CC)c2n1)C(=O)Nc1ccccc1OC` (stereo not drawn), the GI50 with T-47D breast was 7.74 µM; in the assay on MCF7 breast, greater than 89.9 µM; with MDA-MB-231 breast it was 52.5 µM. Moreover, the TGI in the assay on T-47D breast, in the assay on MCF7 breast and with MDA-MB-231 breast was greater than 100 µM in each case.

On to `CN1CCN(c2ccc3c4c(cccc24)C(=O)N(CCN2CCN(CCCN4CCN(CCN5C(=O)c6cccc7c(N8CCN(C)CC8)ccc(c67)C5=O)CC4)CC2)C3=O)CC1`, for which the GI50 is 19.8 µM in the assay with T-47D breast, 5.06 µM in the assay on MCF7 breast and 6.33 µM in the assay with MDA-MB-231 breast. In addition, the TGI in the assay on T-47D breast came out at 50 µM; in the assay with MCF7 breast, 18.5 µM; in the assay with MDA-MB-231 breast it was 13 µM.

As to `CC(=O)O[C@@H]1CO[C@H]2O[C@H]3[C@@H](C(C=O)=C[C@H](O)[C@@H]4C5=C(C(C)C)CC[C@]5(C)CC[C@@]34C)[C@@]2(O)C1=O`, the TGI in the assay on T-47D breast amounted to 0.378 µM; in the assay with MDA-N, 0.415 µM; with MCF7 breast, 1.69 µM; in the assay on MDA-MB-231 breast it was 0.407 µM.

For the compound `CCCCCCCCCCCCCCCC(=O)OCC(O)C1OC(=O)C(O)=C1O` (stereo not drawn), the TGI is greater than 100 µM with T-47D breast, 94.6 µM in the assay on MDA-N, 4.81 µM in the assay on MCF7 breast and 54.2 µM with MDA-MB-231 breast.

With `CC(=O)OC1COC(S[As](C)C)C(OC(C)=O)C1OC(C)=O` (stereo not drawn), the GI50 in the assay with T-47D breast is 2.67 µM; in the assay with MCF7 breast it was 0.165 µM; in the assay on MDA-MB-231 breast it was 0.512 µM. Moreover, the TGI with T-47D breast came out at 19.9 µM; in the assay with MCF7 breast, 5.2 µM; in the assay on MDA-MB-231 breast it was 2.86 µM.

In the case of `COc1ccc(C(O)CNC(=O)c2ccccc2)cc1` (stereo not drawn), the TGI in the assay with T-47D breast, with MDA-N, in the assay on MCF7 breast and with MDA-MB-231 breast was greater than 100 µM throughout.

Turning to `CC(ONC(=O)c1cc(C(F)(F)F)cc(C(F)(F)F)c1)C(=O)Nc1ccc(Cl)cc1` (stereo not drawn), the GI50 is 3.78 µM in the assay on T-47D breast, 3.38 µM with MCF7 breast and 8.7 µM in the assay with MDA-MB-231 breast. Moreover, the figures for the TGI in the assay with T-47D breast, in the assay on MCF7 breast and in the assay on MDA-MB-231 breast were greater than 60.8 µM, 16.5 µM and 36.5 µM, respectively.

Consider `COc1cc(CSc2nc3ccc(C)cc3c(=O)n2Cc2ccccc2)cc(OC)c1OC`, for which the results for the GI50 in the assay with T-47D breast, with MCF7 breast and in the assay with MDA-MB-231 breast were 2.98 µM, 0.587 µM and 3.26 µM, respectively. Moreover, the TGI in the assay with T-47D breast is 32.6 µM; in the assay on MCF7 breast, 22.8 µM; in the assay with MDA-MB-231 breast, greater than 100 µM.

Turning to `COc1ccc2[nH]cc(-c3nc(-c4cn(C)c5ccncc45)cs3)c2c1`, in the assay on MCF7 breast, the GI50 is 1.81 µM and the TGI was 3.65 µM. Moreover, in the assay on MDA-MB-231 breast, the GI50 is 1.87 µM and the TGI was determined as 3.4 µM.

In the case of `C#C[C@]1(O)CC[C@H]2[C@@H]3CC=C4c5sc(N=C(N)N)nc5CC[C@]4(C)[C@H]3CC[C@@]21C`, the GI50 was 1.19 µM with T-47D breast, 0.391 µM with MCF7 breast and 1.14 µM with MDA-MB-231 breast. Also, the TGI turned out to be 3.16 µM with T-47D breast, 1.88 µM in the assay on MCF7 breast and 2.66 µM with MDA-MB-231 breast.

For the compound `CC(C)=CCc1c(O)cc(/C=C/c2cc(O)c3c(c2)C[C@@H]2C(C)(C)[C@H](O)[C@H](O)C[C@@]2(C)O3)cc1O`, the GI50 with T-47D breast is 1.85 µM; with MDA-N it was 1.27 µM; with MCF7 breast, 0.00718 µM; in the assay with MDA-MB-231 breast it was 1.66 µM. In addition, the TGI in the assay with T-47D breast was greater than 9.39 µM; with MDA-N, greater than 10 µM; in the assay with MCF7 breast, 0.831 µM; with MDA-MB-231 breast, greater than 10 µM.

For the compound `CCCCC(=O)N/N=C/c1cc(I)cc(I)c1O`, the GI50 with MCF7 breast is 2.72 µM; in the assay on MDA-MB-231 breast, 2.73 µM. The TGI in the assay with MCF7 breast was 14.6 µM; in the assay on MDA-MB-231 breast it was 29.9 µM.

With `O=S1(=O)CCN(Cc2ccccn2)CC1`, the TGI with T-47D breast, with MDA-N, with MCF7 breast and in the assay on MDA-MB-231 breast was greater than 100 µM each time.

In the case of `O=[N+]([O-])c1ccccc1N=Nc1c(O)[nH]c2ccccc12`, the TGI in the assay with T-47D breast was greater than 100 µM; in the assay on MDA-N, greater than 100 µM; in the assay with MCF7 breast, greater than 100 µM; with MDA-MB-231 breast, greater than 47.3 µM.

As to `COc1cc(OC)c2c(=O)c(O)c(-c3ccc(OC)c(OC)c3)oc2c1`, the TGI in the assay on T-47D breast is 31.4 µM; with MDA-N it was greater than 100 µM; with MCF7 breast it was greater than 31.6 µM; with MDA-MB-231 breast, greater than 100 µM.

With `CS(=O)(=O)CCNCc1ccc(-c2ccc3ncnc(Nc4ccc(OCc5cccc(C(F)(F)F)c5)cc4)c3c2)o1`, the GI50 in the assay on T-47D breast is 7.6 µM; with MCF7 breast, 6.38 µM; with MDA-MB-231 breast, 6.34 µM. Besides, the results for the TGI in the assay with T-47D breast, in the assay on MCF7 breast and in the assay with MDA-MB-231 breast were greater than 23 µM, greater than 15 µM and 14.1 µM, respectively.
